Source: paper PMC10999543, “Identification of kinase modulators as host-directed therapeutics against intracellular methicillin-resistant Staphylococcus aureus” (Frontiers in Cellular and Infection Microbiology, 2024)
Like-named read-outs stand apart in the source and are kept apart here.

What was measured:
[1] = tested on: intracellular MRSA; type: cell-based, Staphylococcus aureus; conditions: for %GFP+ rep 1 / z-scoreMRSA+ rep 1: replicate 1; for %GFP+ rep 2 / z-scoreMRSA+ rep 2: replicate 2; for %GFP+ rep 3 / z-scoreMRSA+ rep 3: replicate 3; for z-scoreMRSA+ mean: mean of 3 replicates
Outline: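 HeLa, MRSA-GFP at MOI ~6.8, 1 h infection; gentamicin 30 µg/ml for 15 min; inhibitor plus gentamicin 5 µg/ml overnight, 37°C/5% CO2; triplicate plates; FACS %GFP+ and cell count; hit = z ≤ -2 MRSA+, z ≥ -3 count.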

[2] = tested on: HeLa cells; assay: Compound screen by flow cytometry: HeLa cell count as surrogate readout of cell viability (z-scoreHeLa); type: cell-based, human; conditions: for cell count rep 1 / z-scoreHeLa rep 1: replicate 1; for cell count rep 2 / z-scoreHeLa rep 2: replicate 2; for cell count rep 3 / z-scoreHeLa rep 3: replicate 3; for z-scoreHeLa mean: mean of 3 replicates
Outline: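 HeLa cells were infected with GFP-MRSA (mean MOI 6.8 ± 4.6) for 1 h, and extracellular bacteria were killed with 30 µg/ml gentamicin. Cells were then incubated overnight with kinase inhibitors in 5 µg/ml gentamicin, in triplicate against DMSO controls. Flow-cytometric cell count served as a viability surrogate, expressed as a plate z-score.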

[3] = PKIS compound screen raw data, MRSA-infected HeLa cells
[4] = Yes/No: effect without cell death
[5] = compound screen, MRSA-infected HeLa cells
[6] = PKIS compound screen raw data, HeLa cell count
[7] = compound screen, HeLa cell count
[8] = PKIS compound screen, Yes/No call
[9] = PKIS compound screen, Yes/No call (effect without cell death)
[10] = PKIS compounds raw data, MRSA-infected HeLa cells
[11] = PKIS compounds raw data, HeLa cell count
[12] = PKIS compound screen, MRSA-infected HeLa cells
[13] = PKIS compound screen, Yes/No call on z-scoreMRSA+
[14] = PKIS compound screen, HeLa cell count
[15] = PKIS compound screen, Yes/No call on z-scoreHeLa

| Compound | %GFP+ rep 1 [1, 3] | %GFP+ rep 2 [1, 3] | %GFP+ rep 3 [1, 3] | effect ([1]; Yes/No call from z-scoreMRSA+) | hit [1, 4] | z-scoreMRSA+ mean [1, 5] | z-scoreMRSA+ rep 1 [1, 5] | z-scoreMRSA+ rep 2 [1, 5] | z-scoreMRSA+ rep 3 [1, 5] | cell count rep 1 [2, 6] | cell count rep 2 [2, 6] | cell count rep 3 [2, 6] | cell death ([2]; Yes/No call from z-scoreHeLa) | z-scoreHeLa mean [2, 7] | z-scoreHeLa rep 1 [2, 7] | z-scoreHeLa rep 2 [2, 7] | z-scoreHeLa rep 3 [2, 7] | effect [1, 8] | hit [1, 9] | z-scoreMRSA+ mean ([1]; PKIS compound screen) | also measured |
| --- | --- | --- | --- | --- | --- | --- | --- | --- | --- | --- | --- | --- | --- | --- | --- | --- | --- | --- | --- | --- | --- |
| CS(=O)(=O)CCNCc1nc(-c2ccc3ncnc(Nc4ccc(OCc5ccccc5)c(Cl)c4)c3c2)cs1 [GW582764A] | 15.6% | 19.2% | 19.4% | No | No | -1.31 | -2.25 | -0.83 | -0.84 | 3605 | 3519 | 4776 | No | -0.48 | -0.54 | -0.60 | -0.29 | – | – | – | – |
| Fc1cc(Cl)ccc1Nc1ccnc2cc(I)ccc12 [GW551191X] | 27.7% | 23.2% | 23.8% | No | No | 0.40 | 0.57 | 0.14 | 0.48 | 6255 | 4849 | 6828 | No | 0.93 | 1.37 | 0.42 | 1.00 | – | – | – | – |
| COc1ccc(Nc2nccc(-c3ccc(NC(=O)c4cc5cc(F)ccc5[nH]4)cc3)n2)cc1 [GSK1229496A] | 23.7% | 24.4% | 20.6% | No | No | -0.14 | -0.37 | 0.43 | -0.48 | 4195 | 3679 | 5039 | No | -0.24 | -0.11 | -0.48 | -0.13 | – | – | – | – |
| CN(C)S(=O)(=O)c1cc(-c2ccc3nccc(-c4cccc(S(N)(=O)=O)c4)c3c2)cnc1N [GSK1669921A] | – | – | – | – | – | – | – | – | – | – | – | – | – | – | – | – | – | No | No | -1.31 | z-scoreMRSA+ rep 1 ([1]; PKIS compound screen): -1.39; z-scoreMRSA+ rep 2 ([1]; PKIS compound screen): -1.10; z-scoreMRSA+ rep 3 ([1]; PKIS compound screen): -1.42; %GFP+ rep 1 [1, 10]: 19.9%; %GFP+ rep 2 [1, 10]: 20.3%; %GFP+ rep 3 [1, 10]: 19.6%; cell death [2, 8]: No; z-scoreHeLa mean ([2]; PKIS compound screen): -1.20; z-scoreHeLa rep 1 ([2]; PKIS compound screen): -1.09; z-scoreHeLa rep 2 ([2]; PKIS compound screen): -1.39; z-scoreHeLa rep 3 ([2]; PKIS compound screen): -1.10; cell count rep 1 [2, 11]: 4231; cell count rep 2 [2, 11]: 3906; cell count rep 3 [2, 11]: 3857 |
| COC(=O)Nc1nc2ccc(Oc3ccc(NC(=O)Nc4cc(C(F)(F)F)ccc4F)cc3)cc2n1C [GW692089A] | 16.9% | 18.4% | 19.6% | – | – | – | – | – | – | 28483 | 25969 | 19864 | – | – | – | – | – | – | No | – | z-scoreMRSA+ mean [1, 12]: -0.41; z-scoreMRSA+ rep 1 [1, 12]: -0.50; z-scoreMRSA+ rep 2 [1, 12]: -0.28; z-scoreMRSA+ rep 3 [1, 12]: -0.45; effect [1, 13]: No; z-scoreHeLa mean [2, 14]: 0.00395; z-scoreHeLa rep 1 [2, 14]: -0.29; z-scoreHeLa rep 2 [2, 14]: 0.12; z-scoreHeLa rep 3 [2, 14]: 0.18; cell death [2, 15]: No |
| Cc1ccc(C(=O)Nc2ccc(Nc3ccnc4cc(-c5ccccn5)ccc34)cc2O)cc1 [GW440146A] | 19.0% | 18.0% | 19.2% | No | No | -1.16 | -1.46 | -1.12 | -0.90 | 4799 | 4726 | 6030 | No | 0.38 | 0.32 | 0.33 | 0.50 | – | – | – | – |
| COc1ccc(CNC(=O)NC2CCN(c3ccnc(Nc4ccc(F)cc4)n3)CC2)cc1 [GSK1379788A] | 25.3% | 23.5% | 21.9% | No | No | 0.044 | 0.00598 | 0.22 | -0.09 | 6376 | 5935 | 7721 | No | 1.43 | 1.46 | 1.26 | 1.57 | – | – | – | – |
| c1ccc(COc2ccc(Nc3ncnc4ccc(-c5ccco5)cc34)cc2)cc1 [GW284372X] | – | – | – | – | – | – | – | – | – | – | – | – | – | – | – | – | – | No | No | -0.74 | z-scoreMRSA+ rep 1 ([1]; PKIS compound screen): -0.66; z-scoreMRSA+ rep 2 ([1]; PKIS compound screen): -0.47; z-scoreMRSA+ rep 3 ([1]; PKIS compound screen): -1.09; %GFP+ rep 1 [1, 10]: 11.1%; %GFP+ rep 2 [1, 10]: 12.1%; %GFP+ rep 3 [1, 10]: 12.2%; cell death [2, 8]: No; z-scoreHeLa mean ([2]; PKIS compound screen): 0.48; z-scoreHeLa rep 1 ([2]; PKIS compound screen): -0.33; z-scoreHeLa rep 2 ([2]; PKIS compound screen): 0.65; z-scoreHeLa rep 3 ([2]; PKIS compound screen): 1.13; cell count rep 1 [2, 11]: 4410; cell count rep 2 [2, 11]: 5123; cell count rep 3 [2, 11]: 9333 |
| CCS(=O)(=O)c1ccc(OC)c(Nc2ncc(-c3cccc(-c4ccccc4F)c3)o2)c1 [GW678313X] | 14.1% | 12.8% | 13.1% | – | – | – | – | – | – | 18271 | 31542 | 48427 | – | – | – | – | – | – | No | – | z-scoreMRSA+ mean [1, 12]: -1.65; z-scoreMRSA+ rep 1 [1, 12]: -1.19; z-scoreMRSA+ rep 2 [1, 12]: -1.72; z-scoreMRSA+ rep 3 [1, 12]: -2.04; effect [1, 13]: No; z-scoreHeLa mean [2, 14]: 0.12; z-scoreHeLa rep 1 [2, 14]: -0.28; z-scoreHeLa rep 2 [2, 14]: -0.61; z-scoreHeLa rep 3 [2, 14]: 1.26; cell death [2, 15]: No |
| c1ccc(-c2ccc3c(Nc4ccc5[nH]ccc5c4)ccnc3c2)nc1 [GW440138A] | – | – | – | – | – | – | – | – | – | – | – | – | – | – | – | – | – | No | No | 1.90 | z-scoreMRSA+ rep 1 ([1]; PKIS compound screen): 1.55; z-scoreMRSA+ rep 2 ([1]; PKIS compound screen): 2.03; z-scoreMRSA+ rep 3 ([1]; PKIS compound screen): 2.14; %GFP+ rep 1 [1, 10]: 35.0%; %GFP+ rep 2 [1, 10]: 36.6%; %GFP+ rep 3 [1, 10]: 38.8%; cell death [2, 8]: No; z-scoreHeLa mean ([2]; PKIS compound screen): 1.19; z-scoreHeLa rep 1 ([2]; PKIS compound screen): 0.89; z-scoreHeLa rep 2 ([2]; PKIS compound screen): 1.20; z-scoreHeLa rep 3 ([2]; PKIS compound screen): 1.48; cell count rep 1 [2, 11]: 7521; cell count rep 2 [2, 11]: 7813; cell count rep 3 [2, 11]: 7928 |
| CN(C)c1cc2c(Nc3ccc4nc(Cc5ccccc5)[nH]c4c3)ncnc2cn1 [GW301888X] | – | – | – | – | – | – | – | – | – | – | – | – | – | – | – | – | – | No | No | 0.0238 | z-scoreMRSA+ rep 1 ([1]; PKIS compound screen): -0.0117; z-scoreMRSA+ rep 2 ([1]; PKIS compound screen): 0.30; z-scoreMRSA+ rep 3 ([1]; PKIS compound screen): -0.22; %GFP+ rep 1 [1, 10]: 27.0%; %GFP+ rep 2 [1, 10]: 27.6%; %GFP+ rep 3 [1, 10]: 26.1%; cell death [2, 8]: No; z-scoreHeLa mean ([2]; PKIS compound screen): 0.66; z-scoreHeLa rep 1 ([2]; PKIS compound screen): 0.47; z-scoreHeLa rep 2 ([2]; PKIS compound screen): 0.90; z-scoreHeLa rep 3 ([2]; PKIS compound screen): 0.61; cell count rep 1 [2, 11]: 6836; cell count rep 2 [2, 11]: 7361; cell count rep 3 [2, 11]: 6557 |
| Fc1cc(Cl)ccc1Nc1ccnc2cc(-c3ccc(CN4CCSCC4)o3)ccc12 [GW560106X] | 16.0% | 19.0% | 19.0% | – | – | – | – | – | – | 31348 | 29129 | 34674 | – | – | – | – | – | – | No | – | z-scoreMRSA+ mean [1, 12]: -0.23; z-scoreMRSA+ rep 1 [1, 12]: -0.59; z-scoreMRSA+ rep 2 [1, 12]: 0.14; z-scoreMRSA+ rep 3 [1, 12]: -0.24; effect [1, 13]: No; z-scoreHeLa mean [2, 14]: -0.095; z-scoreHeLa rep 1 [2, 14]: 1.70; z-scoreHeLa rep 2 [2, 14]: -1.06; z-scoreHeLa rep 3 [2, 14]: -0.93; cell death [2, 15]: No |
| Cc1nc(-c2ccccc2)n2nc(NCCCN3CCOCC3)ncc12 [GW874091X] | – | – | – | – | – | – | – | – | – | – | – | – | – | – | – | – | – | No | No | 0.31 | z-scoreMRSA+ rep 1 ([1]; PKIS compound screen): 0.36; z-scoreMRSA+ rep 2 ([1]; PKIS compound screen): 0.54; z-scoreMRSA+ rep 3 ([1]; PKIS compound screen): 0.0338; %GFP+ rep 1 [1, 10]: 14.3%; %GFP+ rep 2 [1, 10]: 15.1%; %GFP+ rep 3 [1, 10]: 16.0%; cell death [2, 8]: No; z-scoreHeLa mean ([2]; PKIS compound screen): -0.73; z-scoreHeLa rep 1 ([2]; PKIS compound screen): -1.54; z-scoreHeLa rep 2 ([2]; PKIS compound screen): -0.37; z-scoreHeLa rep 3 ([2]; PKIS compound screen): -0.27; cell count rep 1 [2, 11]: 3071; cell count rep 2 [2, 11]: 3785; cell count rep 3 [2, 11]: 6390 |
